Laboratory results from ChEMBL document CHEMBL5316290, “Targeted Protein Degradation Induced by HEMTACs Based on HSP90” (J Med Chem, 2023).
Active and inactive are the calls of the source. No cut-off for these calls is given here.

Legend:
[1] = target: Heat shock protein HSP 90-alpha (Homo sapiens, UniProt P07900); assay: Binding affinity to CM5 sensor chip immobilized human HSP90alpha assessed as dissociation constant by SPR analysis
[2] = target: HSP90/Cyclin-dependent kinase 4 (Mus musculus, UniProt P07901+P11499+P30285); assay: HEMTAC activity at HSP90/CDK4 in mouse B16-F10 cells assessed as induction of CDK4 degradation incubated for 24 hrs by Western blot analysis; assay type: cell-based
[3] = target: HSP90/Cyclin-dependent kinase 6 (Mus musculus, UniProt P07901+P11499+Q64261); assay: HEMTAC activity at HSP90/CDK6 in mouse B16-F10 cells assessed as induction of […] degradation incubated for 24 hrs by Western blot analysis; assay type: cell-based
[4] = target: T1, HSP90/Cyclin-dependent kinase 4 (Mus musculus) (UniProt P30285+P07901+P11499); assay: HEMTAC activity at HSP90/CDK4 in mouse B16-F10 cells assessed as induction of CDK4 degradation by measuring maximal degradation incubated for 24 hrs by Western blot analysis relative to control; assay type: cell-based
[5] = target: T1, HSP90/Cyclin-dependent kinase 4 (Mus musculus); assay: HEMTAC activity at HSP90/CDK4 in mouse B16-F10 cells assessed as induction of CDK4 degradation at 0.5 uM measured after 12 hrs by Western blot analysis; assay type: cell-based
[6] = target: T2, HSP90/Cyclin-dependent kinase 6 (Mus musculus) (UniProt P07901+Q64261+P11499); assay: HEMTAC activity at HSP90/CDK6 in mouse B16-F10 cells assessed as induction of […] degradation at 0.5 uM measured after 12 hrs by Western blot analysis; assay type: cell-based
[7] = target: T2, HSP90/Cyclin-dependent kinase 6 (Mus musculus); assay: HEMTAC activity at HSP90/CDK6 in mouse B16-F10 cells assessed as induction of […] degradation at 0.5 uM pretreated with proteasome inhibitor, MG132 for 2 hrs followed by compound addition and measured after 24 hrs by Western blot analysis; assay type: cell-based
B16-F10 [8] = assay: Binding affinity to HSP90/CDK6 in mouse B16-F10 assessed as ternary complex formation at 5 uM incubated for 6 hrs by co-immunoprecipitation assay; assay type: cell-based
B16-F10 [9] = assay: Binding affinity to HSP90/CDK4 in mouse B16-F10 assessed as ternary complex formation at 5 uM incubated for 6 hrs by co-immunoprecipitation assay; assay type: cell-based
[10] = target: T1, HSP90/Cyclin-dependent kinase 4 (Mus musculus); assay: HEMTAC activity at HSP90/CDK4 in mouse B16-F10 cells assessed as induction of CDK4 degradation at 0.1 uM incubated for 24 hrs in presence of palbociclib by Western blot analysis; assay type: cell-based
[11] = target: T2, HSP90/Cyclin-dependent kinase 6 (Mus musculus); assay: HEMTAC activity at HSP90/CDK6 in mouse B16-F10 cells assessed as induction of CDK6 degradation at 0.1 uM incubated for 24 hrs in presence of palbociclib by Western blot analysis; assay type: cell-based
HFF-1 = assay: Cytotoxicity against human HFF-1 cells assessed as reduction of cell viability incubated for 72 hrs by CCK-8 assay; assay type: toxicity, cell-based; settings: hff-1, 72 h
[12] = target: T1, HSP90/Cyclin-dependent kinase 4 (Mus musculus); assay: HEMTAC activity at HSP90/CDK4 in mouse B16-F10 cells assessed as reduction in CDK4 protein level at 0.5 uM incubated for 24 hrs by global proteomics analysis; assay type: cell-based
B16-F10 [13] = assay: Cytotoxicity against mouse B16-F10 cells assessed as inhibition of cell growth incubated for 72 hrs by CCK-8 assay; assay type: functional, cell-based; settings: B16-F10, 72 h
A-375 = assay: Cytotoxicity against human A-375 cells assessed as inhibition of cell growth incubated for 72 hrs by CCK-8 assay; assay type: functional, cell-based; settings: A-375, 72 h
HepG2 = assay: Cytotoxicity against human HepG2 cells assessed as inhibition of cell growth incubated for 72 hrs by CCK-8 assay; assay type: functional, cell-based; settings: HepG2, 72 h
MDA-MB-231 = assay: Cytotoxicity against human MDA-MB-231 cells assessed as inhibition of cell growth incubated for 72 hrs by CCK-8 assay; assay type: functional, cell-based; settings: MDA-MB-231, 72 h
B16-F10 [14] = assay: Induction of apoptosis in mouse B16-F10 cells assessed as early apoptotic cells at 125 nM incubated for 48 hrs by Annexin V-FITC/PI staining based flow cytometry analysis (reference value: 3.42%); assay type: functional
B16-F10 [15] = assay: Induction of apoptosis in mouse B16-F10 cells assessed as late apoptotic cells at 125 nM incubated for 48 hrs by Annexin V-FITC/PI staining based flow cytometry analysis (reference value: 1.97%); assay type: functional
B16-F10 [16] = assay: Induction of apoptosis in mouse B16-F10 cells assessed as dead cells at 125 nM incubated for 48 hrs by Annexin V-FITC/PI staining based flow cytometry analysis (reference value: 1.75%); assay type: functional
B16-F10 [17] = assay: Induction of apoptosis in mouse B16-F10 cells assessed as live cells at 250 nM incubated for 48 hrs by Annexin V-FITC/PI staining based flow cytometry analysis (reference value: 92.85 %); assay type: functional
B16-F10 [18] = assay: Induction of apoptosis in mouse B16-F10 cells assessed as early apoptotic cells at 250 nM incubated for 48 hrs by Annexin V-FITC/PI staining based flow cytometry analysis (reference value: 3.42%); assay type: functional
B16-F10 [19] = assay: Induction of cell cycle arrest in mouse B16-F10 cells assessed as accumulation of cells at G1 phase at 125 nM incubated for 24 hrs by RNase/PI staining based flow cytometry analysis (reference value: 68.89%); assay type: functional
B16-F10 [20] = assay: Induction of cell cycle arrest in mouse B16-F10 cells assessed as accumulation of cells at G2 phase at 125 nM incubated for 24 hrs by RNase/PI staining based flow cytometry analysis (reference value: 16.13%); assay type: functional
B16-F10 [21] = assay: Induction of cell cycle arrest in mouse B16-F10 cells assessed as accumulation of cells at S phase at 125 nM incubated for 24 hrs by RNase/PI staining based flow cytometry analysis (reference value: 12.45%); assay type: functional
B16-F10 [22] = assay: Induction of cell cycle arrest in mouse B16-F10 cells assessed as accumulation of cells at G1 phase at 250 nM incubated for 24 hrs by RNase/PI staining based flow cytometry analysis (reference value: 68.89%); assay type: functional
B16-F10 [23] = assay: Induction of cell cycle arrest in mouse B16-F10 cells assessed as accumulation of cells at S phase at 250 nM incubated for 24 hrs by RNase/PI staining based flow cytometry analysis (reference value: 12.45%); assay type: functional
[24] = Acute toxicity in zebra fish embryos incubated for 72 hrs; parameters: species or system Danio rerio; settings: zebrafish
B16-F10 [25] = assay: Inhibition of colony formation in mouse B16-F10 cells at 0.25 to 1 uM incubated for 7 days with media replacement for every 2 days by crystal violet staining based analysis; assay type: functional, cell-based; settings: dose 0.25-1 µM, time 7.0 day
[26] = Toxicity in C57BL/6J mouse implanted with mouse B16-F10 cells at 20 to 40 mg/kg, ip administered once daily for 2 weeks and measured every 2 days; assay type: organism-based; settings: in vivo, 336 h, dose 20-40 mg/kg
B16-F10 [27] = assay: Anticancer activity against mouse B16-F10 cells implanted in C57BL/6J mouse assessed as increase in necrosis at 20 mg/kg, ip administered once daily for 2 weeks and measured every 2 days by H and E staining based analysis; assay type: functional, organism-based
Lung = assay: Downregulation of CDK4/6 protein level in lung of C57BL/6J mouse implanted with mouse B16-F10 cells at 20 mg/kg, ip administered once daily for 2 weeks and measured every 2 days by immunohistochemical analysis; assay type: functional, organism-based

## COc1c(C)cnc(Cn2cc(C#CCCn3cc(CNC(=O)CN4CCN(c5ccc(Nc6ncc7c(C)c(C(C)=O)c(=O)n(C8CCCC8)c7n6)nc5)CC4)nn3)c3c(Cl)nc(N)nc32)c1C
[1]
  Kd: 357 nM
[2]
  EC50: 26 nM
[3]
  EC50: 19 nM
[4]
  Emax: 88%
[5]
  Activity: Active
[6]
  Activity: Active
[7]
  Activity: inactive
B16-F10 [8]
  Activity: Active
B16-F10 [9]
  Activity: Active
[10]
  Activity: inactive
[11]
  Activity: inactive
HFF-1
  Activity: Non-Toxic
[12]
  Activity: Active
B16-F10 [13]
  IC50: 112 nM
A-375
  IC50: 126 nM
HepG2
  IC50: 499 nM
MDA-MB-231
  IC50: 313 nM
B16-F10 [14]
  Activity: 14.42%
B16-F10 [15]
  Activity: 11.55%
B16-F10 [16]
  Activity: 1.77%
B16-F10 [17]
  Activity: 62.24%
B16-F10 [18]
  Activity: 20.11%
B16-F10 [19]
  Activity: 74.01%
B16-F10 [20]
  Activity: 18.05%
B16-F10 [21]
  Activity: 7.58%
B16-F10 [22]
  Activity: 81.26%
B16-F10 [23]
  Activity: 2.08%
[24]
  LC50 at 72 h: > 100000 nM
B16-F10 [25]
  inhibition: Active
[26]
  Activity: Non-Toxic
B16-F10 [27]
  Activity: Active
Lung
  Activity: inactive
